How the values were obtained:
[1] = target: T1, SMYD3 (Homo sapiens (Human), UniProt Q9H7B4); assay: SMYD3 biochemical assay (SPA, 3H-SAM methylation of MEKK2 protein substrate); details: average of n = 1 to n = 50; read-out: SMYD3 Biochem IC50
Outline: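 Full-length native human SMYD3 (E. coli-expressed, tags removed) preincubated with compounds 30 min at room temperature, then reaction started with 3H-SAM and GST-tagged MEKK2 protein in 25 mM Tris-Cl pH 8.0, 1 mM TCEP, 0.005% BSG, 0.005% Tween 20. Quenched with unlabelled SAM (100 uM final); 3H-MEKK2 counted by SPA.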

[2] = target: T1, SMYD3; assay: SMYD3 cell assay (Trimethyl-MEKK2 In-Cell Western in 293T/17 cells); format: cell-based; details: average of n = 1 to n = 50; read-out: SMYD3 Cell IC50
Outline: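 In-Cell Western ratio of trimethyl-Lys260 MEKK2 to anti-flag signal; percent inhibition from DMSO and maximum-inhibition controls, IC50 by non-linear regression, triplicates.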

T1 sequence (Q9H7B4 whole entry): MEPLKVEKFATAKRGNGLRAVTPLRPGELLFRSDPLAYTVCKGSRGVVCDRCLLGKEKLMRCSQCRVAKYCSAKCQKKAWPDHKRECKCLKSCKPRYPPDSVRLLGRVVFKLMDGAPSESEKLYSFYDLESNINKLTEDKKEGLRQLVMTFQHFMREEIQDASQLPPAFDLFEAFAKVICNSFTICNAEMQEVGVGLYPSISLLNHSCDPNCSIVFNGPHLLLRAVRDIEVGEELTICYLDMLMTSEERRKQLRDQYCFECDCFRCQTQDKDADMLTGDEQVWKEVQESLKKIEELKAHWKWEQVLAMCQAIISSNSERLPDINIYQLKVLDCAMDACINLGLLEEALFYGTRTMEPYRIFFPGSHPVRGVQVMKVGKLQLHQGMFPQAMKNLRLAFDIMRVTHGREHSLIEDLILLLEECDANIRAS

| SMILES | IC50 [1] [nM] | IC50 [2] [nM] |
| --- | --- | --- |
| CN1CCN(S(=O)(=O)N2[C@@H]3CC[C@H]2C[C@@H](NC(=O)c2cc(C4CC4)on2)C3)CC1(C)C [compound 656, 5-cyclopropyl-N-((1R,3r,5S)-8-((3,3,4-trimethylpiperazin-1-yl)sulfonyl)-8-azabicyclo[3.2.1]octan-3-yl)isoxazole-3-carboxamide] | 59.8 | 441 |
| C[C@@H]1CN(C(=O)c2ccc(C(C)(C)N)cc2)[C@H](C)C[C@@H]1NC(=O)c1cc(C2CC2)on1 [compound 657, N-((2R,4S,5R)-1-(4-(2-aminopropan-2-yl)benzoyl)-2,5-dimethylpiperidin-4-yl)-5-cyclopropylisoxazole-3-carboxamide] | 63.4 | 634 |
| C[C@@H]1C[C@H](NC(=O)c2cc(C3CC3)on2)CCN1C(=O)c1ccc(CN2CCNCC2)cc1 [compound 658, 5-cyclopropyl-N-((2R,4R)-2-methyl-1-(4-(piperazin-1-ylmethyl)benzoyl)piperidin-4-yl)isoxazole-3-carboxamide] | 64.7 | 1400 |
| CN(C1CCN(Cc2ccccc2)CC1)S(=O)(=O)N1[C@@H]2CC[C@H]1C[C@@H](NC(=O)c1cc(C3CC3)on1)C2 [compound 659, N-((1R,3r,5S)-8-(N-(1-benzylpiperidin-4-yl)-N-methylsulfamoyl)-8-azabicyclo[3.2.1]octan-3-yl)-5-cyclopropylisoxazole-3-carboxamide] | 66.4 | 578 |
| CC1CN(S(=O)(=O)N2[C@@H]3CC[C@H]2C[C@@H](NC(=O)c2cc(C4CC4)on2)C3)CCN1C (stereo partly drawn) [compound 660, 5-cyclopropyl-N-((1R,3r,5S)-8-((3,4-dimethylpiperazin-1-yl)sulfonyl)-8-azabicyclo[3.2.1]octan-3-yl)isoxazole-3-carboxamide] | 66.7 | 414 |
| C[C@@H]1CN(S(=O)(=O)N2CC[C@H](NC(=O)c3cc(C4CC4)on3)C[C@@H]2C)[C@@H](C)CN1 [compound 661, 5-cyclopropyl-N-((2S,4S)-1-(((2S,5R)-2,5-dimethylpiperazin-1-yl)sulfonyl)-2-methylpiperidin-4-yl)isoxazole-3-carboxamide] | 77.3 | 490 |
| O=C(N[C@H]1CCN(S(=O)(=O)CC2CCN(CCO)CC2)[C@@H](Cc2ccccc2)C1)c1cc(C2CC2)on1 [compound 662, N-((2S,4S)-2-benzyl-1-(((1-(2-hydroxyethyl)piperidin-4-yl)methyl)sulfonyl)piperidin-4-yl)-5-cyclopropylisoxazole-3-carboxamide] | 80.1 | 1550 |
| O=C(N[C@H]1C[C@H]2CC[C@@H](C1)N2S(=O)(=O)CCN1CCC(N2CCCCC2)C1)c1cc(C2CC2)on1 (stereo partly drawn) [compound 663, 5-cyclopropyl-N-((1R,3r,5S)-8-((2-(3-(piperidin-1-yl)pyrrolidin-1-yl)ethyl)sulfonyl)-8-azabicyclo[3.2.1]octan-3-yl)isoxazole-3-carboxamide] | 85.1 | 670 |
| C[C@@H]1CN(S(=O)(=O)N2CC[C@H](NC(=O)c3cc(C4CC4)on3)C[C@@H]2C)CCN1C [compound 669, 5-cyclopropyl-N-((2S,4S)-1-(((R)-3,4-dimethylpiperazin-1-yl)sulfonyl)-2-methylpiperidin-4-yl)isoxazole-3-carboxamide] | 102 | 398 |
| O=C(N[C@H]1C[C@H]2CC[C@@H](C1)N2S(=O)(=O)CCCNCCN1CCOCC1)c1cc(C2CC2)on1 [compound 670, 5-cyclopropyl-N-((1R,3r,5S)-8-((3-((2-morpholinoethyl)amino)propyl)sulfonyl)-8-azabicyclo[3.2.1]octan-3-yl)isoxazole-3-carboxamide] | 103 | 886 |
| CN(C)CCS(=O)(=O)N1[C@@H]2CC[C@H]1C[C@@H](NC(=O)c1cc(C3CC3)on1)C2 [compound 672, 5-cyclopropyl-N-((1R,3r,5S)-8-((2-(dimethylamino)ethyl)sulfonyl)-8-azabicyclo[3.2.1]octan-3-yl)isoxazole-3-carboxamide] | 104 | 388 |
| O=C(N[C@H]1C[C@H]2CCC[C@@H](C1)N2S(=O)(=O)CC1CCNCC1)c1cc(C2CC2)on1 [compound 673, 5-cyclopropyl-N-((1R,3r,5S)-9-((piperidin-4-ylmethyl)sulfonyl)-9-azabicyclo[3.3.1]nonan-3-yl)isoxazole-3-carboxamide] | 106 | 1680 |
| C[C@@H]1C[C@H](NC(=O)c2cc(C3CC3)on2)CCN1S(=O)(=O)CC1CCN(CCN2CCOCC2)CC1 [compound 676, 5-cyclopropyl-N-((2R,4R)-2-methyl-1-(((1-(2-morpholinoethyl)piperidin-4-yl)methyl)sulfonyl)piperidin-4-yl)isoxazole-3-carboxamide] | 111 | > 10000 |
| CN(C1CCNCC1)S(=O)(=O)N1[C@@H]2CCC[C@H]1C[C@@H](NC(=O)c1cc(C3CC3)on1)C2 [compound 678] | 113 | 2660 |
| C[C@H](N)c1ccc(C(=O)N2CC[C@@H](NC(=O)c3cc(C4CC4)on3)C[C@H]2C)cc1 [compound 679, N-((2R,4R)-1-(4-((S)-1-aminoethyl)benzoyl)-2-methylpiperidin-4-yl)-5-cyclopropylisoxazole-3-carboxamide] | 113 | 1300 |
| C[C@H]1C[C@@H](NC(=O)c2cc(C3CC3)on2)CCN1S(=O)(=O)N1CCN(C)C(C)(C)C1 [compound 680, 5-cyclopropyl-N-((2S,4S)-2-methyl-1-((3,3,4-trimethylpiperazin-1-yl)sulfonyl)piperidin-4-yl)isoxazole-3-carboxamide] | 119 | 592 |

Continued by falling IC50 [1], values first:

| IC50 [1] [nM] | IC50 [2] [nM] | SMILES |
| --- | --- | --- |
| 111 | 5310 | C[C@H]1C[C@@H](NC(=O)c2cc(C3CC3)on2)CCN1S(=O)(=O)N(C)CCN [compound 677, N-((2S,4S)-1-(N-(2-aminoethyl)-N-methylsulfamoyl)-2-methylpiperidin-4-yl)-5-cyclopropylisoxazole-3-carboxamide] |
| 110 | 1370 | CNCc1ccc(C(=O)N2CC[C@@H](NC(=O)c3cc(C4CC4)on3)C[C@H]2C)cc1 [compound 675, 5-cyclopropyl-N-((2R,4R)-2-methyl-1-(4-((methylamino)methyl)benzoyl)piperidin-4-yl)isoxazole-3-carboxamide] |
| 108 | 1080 | C[C@H]1C[C@@H](NC(=O)c2cc(C3CC3)on2)CCN1S(=O)(=O)N(C)C1CCN(C)CC1 [compound 674, 5-cyclopropyl-N-((2S,4S)-2-methyl-1-(N-methyl-N-(1-methylpiperidin-4-yl)sulfamoyl)piperidin-4-yl)isoxazole-3-carboxamide] |
| 104 | 5580 | C[C@@H]1C[C@H](NC(=O)c2cc(C3CC3)on2)CCN1C(=O)c1ccc(OCCN)cc1 [compound 671, N-((2R,4R)-1-(4-(2-aminoethoxy)benzoyl)-2-methylpiperidin-4-yl)-5-cyclopropylisoxazole-3-carboxamide] |
| 101 | 576 | C[C@H]1CN(S(=O)(=O)N(C)C2CCN(C)CC2)CC[C@H]1NC(=O)c1cc(C2CC2)on1 [compound 668, 5-cyclopropyl-N-((3S,4R)-3-methyl-1-(N-methyl-N-(1-methylpiperidin-4-yl)sulfamoyl)piperidin-4-yl)isoxazole-3-carboxamide] |
| 96.9 | 731 | C[C@H]1CN(S(=O)(=O)NC2CCN(C)CC2)CC[C@H]1NC(=O)c1cc(C2CC2)on1 [compound 667, 5-cyclopropyl-N-((3S,4R)-3-methyl-1-(N-(1-methylpiperidin-4-yl)sulfamoyl)piperidin-4-yl)isoxazole-3-carboxamide] |
| 90.6 | 801 | C[C@@H]1CNCCN1S(=O)(=O)N1CC[C@H](NC(=O)c2cc(C3CC3)on2)C[C@@H]1C [compound 666, 5-cyclopropyl-N-((2S,4S)-2-methyl-1-(((R)-2-methylpiperazin-1-yl)sulfonyl)piperidin-4-yl)isoxazole-3-carboxamide] |
| 86.6 | 1070 | C[C@@H]1C[C@H](NC(=O)c2cc(C3CC3)on2)CCN1C(=O)c1ccc([C@@H](C)N)cc1 [compound 664, N-((2R,4R)-1-(4-((R)-1-aminoethyl)benzoyl)-2-methylpiperidin-4-yl)-5-cyclopropylisoxazole-3-carboxamide] |
| 56.4 | 497 | C[C@H]1CN(S(=O)(=O)CC2CCN(Cc3ccccc3)CC2)CC[C@H]1NC(=O)c1cc(C2CC2)on1 [compound 655, N-((3S,4R)-1-(((1-benzylpiperidin-4-yl)methyl)sulfonyl)-3-methylpiperidin-4-yl)-5-cyclopropylisoxazole-3-carboxamide] |
| 56 | 340 | COCCN1CCC(CS(=O)(=O)N2CC[C@@H](NC(=O)c3cc(C4CC4)on3)[C@@H](C)C2)CC1 [compound 654, 5-cyclopropyl-N-((3S,4R)-1-(((1-(2-methoxyethyl)piperidin-4-yl)methyl)sulfonyl)-3-methylpiperidin-4-yl)isoxazole-3-carboxamide] |
| 55 | 328 | C[C@H]1CN(S(=O)(=O)N(C)C2CCNCC2)CC[C@H]1NC(=O)c1cc(C2CC2)on1 [compound 653, 5-cyclopropyl-N-((3S,4R)-3-methyl-1-(N-methyl-N-(piperidin-4-yl)sulfamoyl)piperidin-4-yl)isoxazole-3-carboxamide] |
| 51.1 | 339 | C[C@@H]1C[C@@H](NC(=O)c2cc(C3CC3)on2)CCN1S(=O)(=O)N1CCNCC1 [compound 652, 5-cyclopropyl-N-((2R,4S)-2-methyl-1-(piperazin-1-ylsulfonyl)piperidin-4-yl)isoxazole-3-carboxamide] |

— patent US10577363B2, “Substituted piperidine compounds” (EPIZYME, INC., priority 2014, dated 2020)
